We go through one compound from article PMC9841527 (Journal of Medicinal Chemistry, 2022).

The target of test [1] is DOT1L (Homo sapiens, UniProt Q8TEK3). The test is described as follows: Selectivity assay, DOT1L. In kind it is biochemical. The settings on record: compound 10 μM, 3H-SAM 1 μM.
For test [2], the target named is T1, G9a (Homo sapiens, UniProt Q96KQ7).
T1 sequence (Q96KQ7 1-1210): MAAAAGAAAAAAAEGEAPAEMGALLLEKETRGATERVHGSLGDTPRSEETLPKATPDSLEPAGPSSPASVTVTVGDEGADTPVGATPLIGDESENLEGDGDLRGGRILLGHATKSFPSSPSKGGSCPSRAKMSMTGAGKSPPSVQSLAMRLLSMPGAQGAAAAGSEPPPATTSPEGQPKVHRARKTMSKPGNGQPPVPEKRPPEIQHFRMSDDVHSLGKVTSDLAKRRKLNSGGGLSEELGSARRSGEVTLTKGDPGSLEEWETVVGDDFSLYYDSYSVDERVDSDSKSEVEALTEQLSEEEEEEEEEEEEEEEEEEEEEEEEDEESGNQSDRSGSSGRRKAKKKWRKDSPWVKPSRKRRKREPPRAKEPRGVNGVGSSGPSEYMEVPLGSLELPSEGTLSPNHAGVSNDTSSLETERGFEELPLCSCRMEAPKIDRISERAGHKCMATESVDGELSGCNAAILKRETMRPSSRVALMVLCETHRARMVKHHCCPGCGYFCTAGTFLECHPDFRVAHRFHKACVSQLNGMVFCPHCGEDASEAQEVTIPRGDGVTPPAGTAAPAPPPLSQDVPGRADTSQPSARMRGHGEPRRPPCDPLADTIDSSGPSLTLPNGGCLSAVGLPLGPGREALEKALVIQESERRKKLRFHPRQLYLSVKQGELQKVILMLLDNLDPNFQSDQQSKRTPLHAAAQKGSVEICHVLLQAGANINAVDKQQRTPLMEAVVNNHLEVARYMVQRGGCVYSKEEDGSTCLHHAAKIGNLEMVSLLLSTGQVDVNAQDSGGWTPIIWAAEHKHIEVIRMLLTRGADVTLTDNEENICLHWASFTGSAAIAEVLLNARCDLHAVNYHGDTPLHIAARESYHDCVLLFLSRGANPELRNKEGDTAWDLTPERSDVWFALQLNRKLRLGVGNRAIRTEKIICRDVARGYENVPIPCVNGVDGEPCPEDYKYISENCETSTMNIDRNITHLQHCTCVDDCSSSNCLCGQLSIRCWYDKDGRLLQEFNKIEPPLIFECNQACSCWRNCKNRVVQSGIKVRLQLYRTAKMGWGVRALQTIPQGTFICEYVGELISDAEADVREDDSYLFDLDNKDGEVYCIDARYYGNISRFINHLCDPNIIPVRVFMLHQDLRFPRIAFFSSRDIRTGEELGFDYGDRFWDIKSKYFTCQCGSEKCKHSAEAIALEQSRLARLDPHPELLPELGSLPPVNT
The test can be described thus: Selectivity assay, G9a. The settings on record: compound 10 μM, 3H-SAM 1 μM. It counts as biochemical.

Test [3] concerns the target CcrM (Caulobacter vibrioides, UniProt P0CAW2). In kind it is biochemical, Caulobacter crescentus.
Test [4] has as its target Dnmt3a-Dnmt3L (Mus musculus, UniProt O88508). It counts as biochemical.
For test [5], the target named is T2, CamA (Clostridioides difficile, UniProt Q183J3).
T2 sequence (Q183J3 1-577): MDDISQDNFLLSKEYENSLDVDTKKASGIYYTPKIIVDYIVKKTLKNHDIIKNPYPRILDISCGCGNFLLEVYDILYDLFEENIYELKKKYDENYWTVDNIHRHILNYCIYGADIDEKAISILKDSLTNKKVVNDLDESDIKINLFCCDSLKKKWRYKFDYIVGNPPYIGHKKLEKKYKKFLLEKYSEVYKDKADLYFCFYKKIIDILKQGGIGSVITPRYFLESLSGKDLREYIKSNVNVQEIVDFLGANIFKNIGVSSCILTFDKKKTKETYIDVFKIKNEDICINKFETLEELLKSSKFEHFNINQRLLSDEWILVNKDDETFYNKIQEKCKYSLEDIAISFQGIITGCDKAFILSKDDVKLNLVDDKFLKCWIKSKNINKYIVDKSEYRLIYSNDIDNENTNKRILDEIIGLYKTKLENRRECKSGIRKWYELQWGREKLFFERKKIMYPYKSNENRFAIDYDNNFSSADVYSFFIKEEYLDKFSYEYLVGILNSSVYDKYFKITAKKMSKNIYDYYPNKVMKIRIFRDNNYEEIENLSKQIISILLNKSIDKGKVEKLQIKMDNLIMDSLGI
The test is described as follows: Isothermal titration calorimetry. In kind it is binding. The settings on record: from that of compound 37.

Test [6] addresses MettL3-MettL14 (Homo sapiens, UniProt Q86U44). The test can be described thus: Selectivity assay, MettL3-MettL14. In kind it is biochemical. The settings on record: [I] = 10 μM, [SAM] = 20 μM, 5 mM NaCl, or CamA conditions.
Test [7] concerns the target MettL5-Trm112 (Homo sapiens, UniProt Q9NRN9). It counts as biochemical.
Test [8] deals with T3, A1 adenosine receptor (A1AR) (Homo sapiens, UniProt P30542).
T3 sequence (P30542 1-326): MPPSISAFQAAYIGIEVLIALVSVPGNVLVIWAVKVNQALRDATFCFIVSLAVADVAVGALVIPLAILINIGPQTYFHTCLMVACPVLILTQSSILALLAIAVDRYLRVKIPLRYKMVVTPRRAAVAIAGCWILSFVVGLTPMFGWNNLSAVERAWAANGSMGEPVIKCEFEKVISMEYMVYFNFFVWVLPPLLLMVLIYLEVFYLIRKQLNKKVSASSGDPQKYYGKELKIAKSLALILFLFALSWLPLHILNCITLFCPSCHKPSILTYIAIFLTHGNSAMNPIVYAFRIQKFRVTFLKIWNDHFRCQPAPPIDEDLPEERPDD
The test is described as follows: A1AR agonist radioligand binding assay. To be noted: compound 10 μM, [3H]CCPA 1 nM, transfected CHO cell membranes.

Test [9] has as its target PCIF1 (Homo sapiens, UniProt Q9H4Z3). It counts as biochemical.
Test [10] has as its target PRMT1 (Homo sapiens, UniProt Q99873). The test can be described thus: Selectivity assay, PRMT1. The settings on record: compound 10 μM, 3H-SAM 1 μM. It counts as biochemical.
In test [11] the target is T4, MettL16 (Homo sapiens, UniProt Q86W50).
T4 sequence (Q86W50 1-562): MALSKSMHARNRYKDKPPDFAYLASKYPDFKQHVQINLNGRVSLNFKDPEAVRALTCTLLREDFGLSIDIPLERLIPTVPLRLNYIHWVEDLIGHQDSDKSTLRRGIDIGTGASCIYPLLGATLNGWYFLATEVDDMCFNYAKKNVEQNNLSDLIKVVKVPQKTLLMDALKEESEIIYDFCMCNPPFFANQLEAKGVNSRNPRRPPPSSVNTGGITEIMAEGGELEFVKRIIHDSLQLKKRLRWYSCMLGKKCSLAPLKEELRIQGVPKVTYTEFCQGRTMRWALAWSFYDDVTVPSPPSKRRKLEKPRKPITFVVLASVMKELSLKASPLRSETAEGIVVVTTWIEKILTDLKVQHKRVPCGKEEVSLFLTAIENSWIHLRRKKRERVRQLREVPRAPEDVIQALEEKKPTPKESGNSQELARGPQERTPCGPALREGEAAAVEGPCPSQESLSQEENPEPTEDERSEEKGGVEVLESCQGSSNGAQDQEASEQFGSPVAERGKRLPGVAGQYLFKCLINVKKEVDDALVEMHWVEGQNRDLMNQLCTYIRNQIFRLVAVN
The test can be described thus: Selectivity assay, MettL16. The settings on record: [I] = 10 μM, [SAM] = 160 μM or 30 μM. It counts as biochemical.

Test [12] deals with EZH2 complex (Homo sapiens, UniProt Q15910). The test can be described thus: Selectivity assay, EZH2 complex. In kind it is biochemical. To be noted: compound 10 μM, 3H-SAM 1 μM.
In test [13] the target is T5, Dam (Escherichia coli, UniProt P0AEE8).
T5 sequence (P0AEE8 1-278): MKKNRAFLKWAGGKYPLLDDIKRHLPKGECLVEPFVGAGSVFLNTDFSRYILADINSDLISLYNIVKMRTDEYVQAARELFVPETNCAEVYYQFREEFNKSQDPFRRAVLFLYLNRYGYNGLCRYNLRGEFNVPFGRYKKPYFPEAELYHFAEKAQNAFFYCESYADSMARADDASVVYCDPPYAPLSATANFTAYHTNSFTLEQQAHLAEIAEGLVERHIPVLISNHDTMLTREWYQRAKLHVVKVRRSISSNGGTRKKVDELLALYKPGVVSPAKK
In kind it is biochemical.

The target of test [14] is DNMT1 (Homo sapiens, UniProt P26358). The test is described as follows: Selectivity assay, DNMT1. It counts as biochemical. The settings on record: [I] = 10 μM, [SAM] = 5.5 μM, 37 °C.
Chain of DNMT1 (P26358 351-1600): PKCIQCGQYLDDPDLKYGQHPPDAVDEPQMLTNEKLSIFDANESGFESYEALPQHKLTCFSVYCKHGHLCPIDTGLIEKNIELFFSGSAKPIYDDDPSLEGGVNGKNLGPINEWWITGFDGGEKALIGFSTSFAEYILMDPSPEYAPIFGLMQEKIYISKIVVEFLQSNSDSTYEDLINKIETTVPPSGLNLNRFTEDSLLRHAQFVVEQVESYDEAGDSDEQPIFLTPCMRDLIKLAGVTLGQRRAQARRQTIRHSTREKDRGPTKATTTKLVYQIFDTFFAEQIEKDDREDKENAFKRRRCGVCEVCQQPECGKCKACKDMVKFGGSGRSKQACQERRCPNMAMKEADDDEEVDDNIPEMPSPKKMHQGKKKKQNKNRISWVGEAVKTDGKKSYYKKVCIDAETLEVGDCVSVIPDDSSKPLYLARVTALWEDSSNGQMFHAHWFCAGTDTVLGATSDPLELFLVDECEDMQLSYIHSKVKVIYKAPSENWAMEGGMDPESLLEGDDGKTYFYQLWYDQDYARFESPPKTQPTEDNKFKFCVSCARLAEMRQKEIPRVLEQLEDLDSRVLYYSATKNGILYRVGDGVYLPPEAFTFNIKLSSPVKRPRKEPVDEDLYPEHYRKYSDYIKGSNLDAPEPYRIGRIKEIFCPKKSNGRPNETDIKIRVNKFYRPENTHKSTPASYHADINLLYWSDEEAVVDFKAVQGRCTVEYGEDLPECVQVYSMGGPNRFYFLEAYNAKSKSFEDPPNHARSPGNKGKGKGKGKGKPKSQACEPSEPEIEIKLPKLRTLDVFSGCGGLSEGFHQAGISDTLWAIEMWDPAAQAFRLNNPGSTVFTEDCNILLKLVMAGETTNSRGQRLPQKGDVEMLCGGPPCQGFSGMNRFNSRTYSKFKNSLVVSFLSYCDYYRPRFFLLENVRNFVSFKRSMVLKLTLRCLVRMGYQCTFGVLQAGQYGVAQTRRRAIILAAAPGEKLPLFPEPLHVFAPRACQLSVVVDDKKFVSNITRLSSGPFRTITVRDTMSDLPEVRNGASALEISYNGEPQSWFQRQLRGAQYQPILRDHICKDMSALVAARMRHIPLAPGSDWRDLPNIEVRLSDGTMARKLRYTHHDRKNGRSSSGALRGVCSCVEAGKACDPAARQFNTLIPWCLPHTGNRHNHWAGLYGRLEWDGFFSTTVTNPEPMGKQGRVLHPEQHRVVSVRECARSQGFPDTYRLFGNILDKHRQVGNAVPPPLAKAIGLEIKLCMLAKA

Chain of DOT1L (Q8TEK3 whole entry): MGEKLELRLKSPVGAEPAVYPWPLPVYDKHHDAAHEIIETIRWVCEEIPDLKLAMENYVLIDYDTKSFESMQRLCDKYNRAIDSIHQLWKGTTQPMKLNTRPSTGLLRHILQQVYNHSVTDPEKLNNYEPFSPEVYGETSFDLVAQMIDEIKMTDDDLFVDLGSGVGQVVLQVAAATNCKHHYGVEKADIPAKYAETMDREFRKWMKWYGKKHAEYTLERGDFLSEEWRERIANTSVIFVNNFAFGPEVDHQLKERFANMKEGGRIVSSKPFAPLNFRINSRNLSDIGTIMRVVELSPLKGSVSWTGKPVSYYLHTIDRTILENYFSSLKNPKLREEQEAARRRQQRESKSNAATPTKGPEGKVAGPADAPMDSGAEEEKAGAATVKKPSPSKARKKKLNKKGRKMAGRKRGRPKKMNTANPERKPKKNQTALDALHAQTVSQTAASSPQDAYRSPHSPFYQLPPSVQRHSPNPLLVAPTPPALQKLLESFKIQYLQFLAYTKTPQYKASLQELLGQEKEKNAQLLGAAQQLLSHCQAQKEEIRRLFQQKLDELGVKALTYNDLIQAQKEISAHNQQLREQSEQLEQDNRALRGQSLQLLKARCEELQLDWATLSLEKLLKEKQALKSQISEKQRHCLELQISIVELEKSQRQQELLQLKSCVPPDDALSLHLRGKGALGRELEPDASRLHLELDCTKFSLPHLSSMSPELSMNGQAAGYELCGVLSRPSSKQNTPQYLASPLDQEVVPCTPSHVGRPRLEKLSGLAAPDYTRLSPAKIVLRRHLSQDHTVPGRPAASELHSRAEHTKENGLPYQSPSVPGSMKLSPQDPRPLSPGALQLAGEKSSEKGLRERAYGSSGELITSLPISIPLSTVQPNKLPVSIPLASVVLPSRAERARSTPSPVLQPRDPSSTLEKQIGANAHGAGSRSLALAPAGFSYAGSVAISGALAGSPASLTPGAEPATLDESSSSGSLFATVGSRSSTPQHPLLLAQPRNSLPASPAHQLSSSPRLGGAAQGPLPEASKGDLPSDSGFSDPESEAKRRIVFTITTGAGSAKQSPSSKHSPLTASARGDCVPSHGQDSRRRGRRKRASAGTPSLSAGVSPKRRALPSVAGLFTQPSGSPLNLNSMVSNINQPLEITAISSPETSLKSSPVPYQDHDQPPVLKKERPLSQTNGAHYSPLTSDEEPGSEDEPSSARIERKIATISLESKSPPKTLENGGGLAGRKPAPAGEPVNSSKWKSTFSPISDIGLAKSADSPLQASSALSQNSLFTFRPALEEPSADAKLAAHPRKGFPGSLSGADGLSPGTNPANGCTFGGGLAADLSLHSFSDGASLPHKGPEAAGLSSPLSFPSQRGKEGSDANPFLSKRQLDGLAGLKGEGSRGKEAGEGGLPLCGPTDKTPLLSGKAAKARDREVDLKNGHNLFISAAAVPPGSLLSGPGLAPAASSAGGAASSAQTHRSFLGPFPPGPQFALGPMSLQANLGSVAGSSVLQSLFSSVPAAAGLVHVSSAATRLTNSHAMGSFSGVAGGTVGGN
Chain of PCIF1 (Q9H4Z3 whole entry): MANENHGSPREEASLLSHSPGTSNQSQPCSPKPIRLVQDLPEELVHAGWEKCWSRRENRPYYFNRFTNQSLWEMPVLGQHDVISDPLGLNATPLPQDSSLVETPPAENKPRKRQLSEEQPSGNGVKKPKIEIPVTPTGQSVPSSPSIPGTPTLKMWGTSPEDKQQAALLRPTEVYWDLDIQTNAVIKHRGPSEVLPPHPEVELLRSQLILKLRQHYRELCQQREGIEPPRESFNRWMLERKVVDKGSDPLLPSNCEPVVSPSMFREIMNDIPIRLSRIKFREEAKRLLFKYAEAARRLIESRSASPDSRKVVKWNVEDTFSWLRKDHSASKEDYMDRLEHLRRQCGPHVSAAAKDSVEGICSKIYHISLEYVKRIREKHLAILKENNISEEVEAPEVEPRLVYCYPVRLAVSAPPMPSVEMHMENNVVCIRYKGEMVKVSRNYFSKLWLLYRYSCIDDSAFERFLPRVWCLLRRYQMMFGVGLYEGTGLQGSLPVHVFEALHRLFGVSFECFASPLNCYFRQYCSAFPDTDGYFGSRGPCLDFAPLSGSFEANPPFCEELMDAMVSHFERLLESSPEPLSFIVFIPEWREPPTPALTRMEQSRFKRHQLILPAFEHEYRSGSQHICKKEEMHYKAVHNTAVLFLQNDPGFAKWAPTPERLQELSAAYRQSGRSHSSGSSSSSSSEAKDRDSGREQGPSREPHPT
Chain of CcrM (P0CAW2 whole entry): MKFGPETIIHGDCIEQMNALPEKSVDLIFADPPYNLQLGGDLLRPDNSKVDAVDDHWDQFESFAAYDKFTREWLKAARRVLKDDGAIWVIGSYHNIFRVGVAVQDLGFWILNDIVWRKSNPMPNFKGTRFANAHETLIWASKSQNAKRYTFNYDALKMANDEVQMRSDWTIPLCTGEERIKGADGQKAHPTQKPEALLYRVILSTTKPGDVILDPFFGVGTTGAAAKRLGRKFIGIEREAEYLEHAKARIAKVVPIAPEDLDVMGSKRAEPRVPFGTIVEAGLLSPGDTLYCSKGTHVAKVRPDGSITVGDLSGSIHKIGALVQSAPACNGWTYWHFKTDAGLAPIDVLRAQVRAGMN
Chain of PRMT1 (Q99873 whole entry): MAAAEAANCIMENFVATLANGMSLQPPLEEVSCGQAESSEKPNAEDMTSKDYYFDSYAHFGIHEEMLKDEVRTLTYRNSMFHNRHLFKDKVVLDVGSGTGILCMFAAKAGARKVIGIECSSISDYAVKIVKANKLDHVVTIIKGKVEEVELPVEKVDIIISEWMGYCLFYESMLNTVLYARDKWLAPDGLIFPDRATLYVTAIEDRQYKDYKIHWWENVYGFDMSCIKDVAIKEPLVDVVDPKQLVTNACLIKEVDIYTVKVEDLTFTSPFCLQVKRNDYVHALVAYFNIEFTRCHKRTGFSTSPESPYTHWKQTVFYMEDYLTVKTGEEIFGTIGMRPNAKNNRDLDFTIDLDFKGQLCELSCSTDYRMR
Chain of MettL5-Trm112 (Q9NRN9 whole entry): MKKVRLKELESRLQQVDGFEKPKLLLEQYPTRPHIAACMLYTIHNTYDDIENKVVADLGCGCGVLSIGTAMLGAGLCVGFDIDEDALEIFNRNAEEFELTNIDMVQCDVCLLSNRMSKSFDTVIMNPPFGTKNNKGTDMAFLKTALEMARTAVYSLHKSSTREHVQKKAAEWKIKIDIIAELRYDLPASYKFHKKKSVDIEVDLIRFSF
Chain of MettL5-Trm112 (Q9UI30 whole entry partner): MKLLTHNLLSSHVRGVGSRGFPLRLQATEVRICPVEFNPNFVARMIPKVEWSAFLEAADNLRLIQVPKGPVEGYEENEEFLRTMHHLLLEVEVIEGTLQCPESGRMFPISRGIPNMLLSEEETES

As to `CC(C)(C)OC(=O)N1CCC(CCNc2ncnc3c2ncn3[C@@H]2O[C@H](CO)[C@@H](O)[C@H]2O)CC1` [Compound 38, tert-Butyl-4-(2-((9-((2R,3R,4S,5R)-3,4-dihydroxy-5-(hydroxymethyl)tetrahydrofuran-2-yl)-9H-purin-6-yl)amino)ethyl)piperidine-1-carboxylate], the “inhibition of DOT1L” value in [1] is reported as “none of them showed any significant inhibition”. Also, the “inhibition of G9a” value in [2] was “none of them showed any significant inhibition”. Besides, in [3], the “inhibition of CcrM” value is reported as “none of them showed any significant inhibition”. Also, the “inhibition of Dnmt3a-Dnmt3L” value in test [4] was “none of them showed any significant inhibition”. Moreover, in [5], the “KD improved, fold” value is about 8 ×. Besides, the “inhibition of MettL3-MettL14” value in test [6] was “none of them showed any significant inhibition”. For the same compound, the “inhibition of MettL5-Trm112” value in [7] is on record as “none of them showed any significant inhibition”. Also, the “inhibition of control radioligand specific binding, A1AR” value in test [8] is reported as “minimal inhibition of specific binding”. Also, the “inhibition of PCIF1” value in test [9] is given as “none of them showed any significant inhibition”. Further, the “inhibition of PRMT1” value in test [10] is “none of them showed any significant inhibition”. The “inhibition of MettL16” value in [11] is given as “none of them showed any significant inhibition”. Also, the “inhibition of EZH2 complex” value in test [12] was “none of them showed any significant inhibition”. In addition, the “inhibition of Dam” value in test [13] is recorded as “none of them showed any significant inhibition”. In addition, the “inhibition of DNMT1” value in test [14] is recorded as “none of them showed any significant inhibition”.
